Key:
[1] = system: rheumatoid arthritis; test: Case study: patient with rheumatoid arthritis treated orally; assay type: in vivo, human; conditions: same patient, NSAIDs taken during the first 5 weeks of the disease onset
Method: This treatment was complemented with the regular practice of moderate physical exercises every 2-3 days, including exercises with weights, the application of cold or hot compresses, relaxation techniques, elevation of affected body parts, and at least 8 hours of sleep. Pain was treated with acetaminophen when needed. […] Then, the Omega 3-6-9 supplement was removed from the treatment and 100 mg niacin was added (Rite Aid Corporation, Harrisburg, Pa., USA) once a day during a week, twice a day for another week and 3 times daily for one more week (to a final dose of 300 mg/day). […] They never took DMARDs or steroids.

[2] = system: osteoarthritis; conditions: subjects with OA, 3 g per day; cited from earlier work
[3] = system: undercarboxylated osteocalcin; conditions: healthy subjects, per day; cited from earlier work
[4] = in fish and flax seed oils; cited from earlier work
[5] = natural vitamin K; cited from earlier work

With `O=C(O)Cc1ccccc1Nc1c(Cl)cccc1Cl` [diclofenac] the “benefit of NSAIDs” value [1] was “without any significative beneficial result”.

For `NC(=O)c1cccnc1` [nicotinamide], the “NSAID medication and joint mobility compared with placebo controls” value [2] is given as “reduced their non-steroidal anti-inflammatory (NSAID) medication and increased joint mobility significantly”.

For `CC(C)Cc1ccc(C(C)C(=O)O)cc1` (stereo not drawn) [ibuprofen], the “benefit of NSAIDs” value [1] was “without any significative beneficial result”.

For `CC1=C(C/C=C(\C)CCC[C@H](C)CCC[C@H](C)CCCC(C)C)C(=O)c2ccccc2C1=O` [vitamin K1, 2-methyl-3-phytyl-1-4-naphthoquinone], the “daily intake at which circulating undercarboxylated osteocalcin began to decrease” value [3] is listed as 300 µg.

For vitamin K, the solubility [4] is given as “soluble” and the safe dose [5] is given as “up to 15 milligrams per day”.
